From patent US12692235B2, “Fused ring compound and application thereof” (WUHAN LL SCIENCE AND TECHNOLOGY DEVELOPMENT CO., LTD., priority 2019, dated 2026)

Experiments:
[1] = system: Male Dunkin Hartley guinea pigs; assay: Simple citric acid cough model; assay type: in vivo; conditions: guinea pig; for Average cough times: 17.5% citric acid
Protocol: Male Dunkin Hartley guinea pigs (300-350 g) were placed in an animal atomization box, and then the door of the atomization box was closed while the ultrasonic atomizer (Guangdong Yuehua) was turned on. 17.5% citric acid gas was introduced into the atomization box at a maximum atomization rate (about 2 mL/min) for 20 s, and coughs of the animals within 10 min were continuously observed from the time of the start of atomization. During the 10-min observation, coughs of the animals needed to be counted manually, and the number of coughs were judged according to cough postures of the guinea pigs, such as abdominal twitching, mouth opening, and head inclining downward abruptly. The number of coughs during the first 5 min and that during 10 min were recorded, and the cough latency of the guinea pigs, namely the time from the initiation of citric acid induction to the appearance of the 1st cough, was also recorded.

[2] = molecular target: T1, hP2X4 (human purinergic P2X receptor subtype 4) (Homo sapiens, UniProt Q99571); conditions: P2X4 IC50 (nM), HEK293 cells stably expressing hP2X4; agonist BZ-ATP 2.5 μM; FLIPR calcium
T1 sequence (Q99571 1-404 isoform Q99571-2): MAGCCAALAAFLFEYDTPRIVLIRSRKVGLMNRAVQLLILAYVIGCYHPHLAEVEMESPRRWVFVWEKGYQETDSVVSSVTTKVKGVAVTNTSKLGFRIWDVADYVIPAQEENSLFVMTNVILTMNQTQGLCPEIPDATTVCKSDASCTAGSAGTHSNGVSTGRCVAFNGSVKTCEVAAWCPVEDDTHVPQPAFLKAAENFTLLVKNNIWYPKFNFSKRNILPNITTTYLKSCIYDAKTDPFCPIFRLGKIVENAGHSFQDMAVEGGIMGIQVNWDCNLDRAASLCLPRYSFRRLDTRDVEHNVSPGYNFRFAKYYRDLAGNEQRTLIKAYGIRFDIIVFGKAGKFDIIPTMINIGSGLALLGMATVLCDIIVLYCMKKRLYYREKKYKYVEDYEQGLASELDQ
Protocol: Cells at 400,000 cells/mL were seeded into a 384-well plate (10,000 cells/well) 18-24 h prior to the FLIPR experiment and then incubated overnight in a cell incubator. […] Each well was added with 20 μL of 0.5×Calcium 6 fluorescent dye (Molecular Devices, R8190) and then the cells were subjected to dye-loading incubation at 37° C. for 1.5 h. Each well was added with 10 μL of respective test compound (dissolved in DMSO at a concentration of 10 mM and serially diluted with buffer) or vehicle and the mixture was equilibrated for 30 min at room temperature.

[3] = 60 mg/kg group, before administration
[4] = citric acid, 20 mg/kg and 60 mg/kg, dose-dependent, vs vehicle group or before administration

Row | SMILES | IC50 [2] | further results
1 | COc1ccc2c(c1)[C@]13CCCC[C@@H]1[C@H](C2)N(C)CC3 [Dextromethorphan, dextromethorphan, reference compound] | – | Average cough times [1, 3]: 19.70; Average cough times ([1]; 60 mg/kg, after administration): 11.20; Cough inhibition rate Vs basic value (%) ([1]; citric acid, 60 mg/kg): 43.15%; Cough inhibition rate Vs vehicle (%) ([1]; citric acid, 60 mg/kg): 38.54%
2 | COc1nccc2c(S(N)(=O)=O)cc(NC(=O)Cc3ccccc3Cl)cc12 [Compound 1, 2-(2-chlorophenyl)-N-(1-methoxy-5-sulfamoylisoquinolin-7-yl)acetamide] | < 10 nM | Average cough times ([1]; 20 mg/kg group, before administration): 19.00; Average cough times ([1]; 20 mg/kg, after administration): 11.22; Average cough times [1, 3]: 19.40; Average cough times ([1]; 60 mg/kg, after administration): 10.50; Average cough times ([1]; 100 mg/kg group, before administration): 19.90; Average cough times ([1]; 100 mg/kg, after administration): 8.60; Cough inhibition rate Vs basic value (%) ([1]; citric acid, 20 mg/kg): 40.94%; Cough inhibition rate Vs vehicle (%) ([1]; citric acid, 20 mg/kg): 38.41%; cough latency [1, 4]: prolong the cough latency; number of coughs [1, 4]: reduce the number of coughs; Cough inhibition rate Vs basic value (%) ([1]; citric acid, 60 mg/kg): 45.88%; Cough inhibition rate Vs vehicle (%) ([1]; citric acid, 60 mg/kg): 42.38%; drug effect compared with dextromethorphan at the same dosage ([1]; citric acid, 60 mg/kg): no significant difference in the drug effect compared with the positive compound dextromethorphan; Cough inhibition rate Vs basic value (%) ([1]; citric acid, 100 mg/kg): 56.78%; Cough inhibition rate Vs vehicle (%) ([1]; citric acid, 100 mg/kg): 52.80%
3 | NS(=O)(=O)c1cc(NC(=O)Cc2ccccc2Cl)cc2ccncc12 [Compound 45, 2-(2-chlorophenyl)-N-(8-sulfamoylisoquinolin-6-yl)acetamide] | 50 to 200 nM | –
4 | NS(=O)(=O)c1cc(NC(=O)Cc2ccccc2Cl)cc2c(Nc3ccc(F)cc3)nccc12 [Compound 52, 2-(2-chlorophenyl)-N-(1-((4-fluorophenyl)amino)-5-sulfamoylisoquinolin-7-yl)acetamide] | 200 to 5000 nM | –
5 | CN1CCN(c2cc3c(S(N)(=O)=O)cc(NC(=O)Cc4ccccc4Cl)cc3cn2)CC1=O [Compound 80, 2-(2-chlorophenyl)-N-(3-(4-methyl-3-carbonylpiperazin-1-yl)-5-sulfamoylisoquinolin-7-yl)acetamide] | 50 to 200 nM | –
6 | NS(=O)(=O)c1cc(NC(=O)Cc2ccccc2Cl)cc2c(OCCC3CC3)nccc12 [Compound 17, 2-(2-chlorophenyl)-N-(1-(2-cyclopropylethoxy)-5-sulfamoylisoquinolin-7-yl)acetamide] | 50 to 200 nM | –
7 | NS(=O)(=O)c1cc(NC(=O)Cc2ccccc2Cl)cc2cccnc12 [Compound 37, 2-(2-chlorophenyl)-N-(8-sulfamoylquinolin-6-yl)acetamide] | 10 to 50 nM | –
8 | CC(C)Oc1nccc2c(S(N)(=O)=O)cc(NC(=O)Cc3ccccc3Cl)cc12 [Compound 9, 2-(2-chlorophenyl)-N-(1-isopropoxy-5-sulfamoylisoquinolin-7-yl)acetamide] | 10 to 50 nM | –
9 | Nc1nccc2c(S(N)(=O)=O)cc(NC(=O)Cc3ccccc3Cl)cc12 [Compound 51, N-(1-amino-5-sulfamoylisoquinolin-7-yl)-2-(2-chlorophenyl)acetamide] | 200 to 5000 nM | –
10 | COC(=O)N1CCc2c(cc(NC(=O)Cc3ccccc3Cl)cc2S(N)(=O)=O)C1 [Compound 99, methyl 7-(2-(2-chlorophenyl)acetamido)-5-sulfamoyl-3,4-dihydroisoquinoline-2(1H)-carboxylate] | 10 to 50 nM | –
11 | N#Cc1nccc2c(S(N)(=O)=O)cc(NC(=O)Cc3ccccc3Cl)cc12 [Compound 44, 2-(2-chlorophenyl)-N-(1-cyano-5-sulfamoylisoquinolin-7-yl)acetamide] | 200 to 5000 nM | –
12 | N#Cc1cc2c(S(N)(=O)=O)cc(NC(=O)Cc3ccccc3Cl)cc2cn1 [Compound 20, 2-(2-chlorophenyl)-N-(3-cyano-5-sulfamoylisoquinolin-7-yl)acetamide] | 10 to 50 nM | –
13 | COc1ccc2c(S(N)(=O)=O)cc(NC(=O)Cc3ccccc3Cl)cc2n1 [Compound 65, 2-(2-chlorophenyl)-N-(2-methoxy-5-sulfamoylquinolin-7-yl)acetamide] | 10 to 50 nM | –
14 | COc1nccc2c(S(N)(=O)=O)cc(NC(=O)Cc3cc(F)ccc3Cl)cc12 [Compound 93, 2-(2-Chloro-5-fluorophenyl)-N-(1-methoxy-5-sulfamoylisoquinolin-7-yl)acetamide] | 50 to 200 nM | –
15 | NS(=O)(=O)c1cc(NC(=O)Cc2ccccc2Cl)cc2nc(C3CC3)ccc12 [Compound 85, 2-(2-chlorophenyl)-N-(2-cyclopropyl-5-sulfamoylquinolin-7-yl)acetamide] | 200 to 5000 nM | –
16 | Cc1ccc(Oc2nccc3c(S(N)(=O)=O)cc(NC(=O)Cc4ccccc4Cl)cc23)cc1 [Compound 34, 2-(2-chlorophenyl)-N-(5-sulfamoyl-1-(p-tolyloxy)isoquinolin-7-yl)acetamide] | 10 to 50 nM | –
17 | NS(=O)(=O)c1cc(NC(=O)Cc2ccccc2Cl)cc2c1CCN(c1ccc(C(F)(F)F)cn1)C2 [Compound 117, 2-(2-chlorophenyl)-N-(5-sulfamoyl-2-(5-(trifluoromethyl)pyridin-2-yl)-1,2,3,4-tetrahydroisoquinolin-7-yl)acetamide] | 10 to 50 nM | –
18 | NS(=O)(=O)c1cc(NC(=O)Cc2ccccc2Cl)cc2nc(-n3cccn3)ccc12 [Compound 49, N-(2-(1H-pyrazol-1-yl)-5-sulfamoylquinolin-7-yl)-2-(2-chlorophenyl)acetamide] | 50 to 200 nM | –
19 | NS(=O)(=O)c1cc(NC(=O)Cc2ccccc2Cl)cc2ccnnc12 [Compound 41, 2-(2-chlorophenyl)-N-(8-sulfamoylcinnolin-6-yl)acetamide] | 50 to 200 nM | –
20 | COC(=O)N1CCCc2c1cc(NC(=O)Cc1ccccc1Cl)cc2S(N)(=O)=O [Compound 46, methyl 7-(2-(2-chlorophenyl)acetamido)-5-sulfamoyl-3,4-dihydroquinoline-1(2H)-carboxylate] | 200 to 5000 nM | –
21 | COc1nccc2c(S(N)(=O)=O)cc(NC(=O)Cc3c(Cl)cccc3Cl)cc12 [Compound 91, 2-(2,6-dichlorophenyl)-N-(1-methoxy-5-sulfamoylisoquinolin-7-yl)acetamide] | 200 to 5000 nM | –
22 | NS(=O)(=O)c1cc(NC(=O)Cc2ccccc2Cl)cc2cc(-n3ccnc3)ncc12 [Compound 50, N-(3-(1H-imidazol-1-yl)-8-sulfamoylisoquinolin-6-yl)-2-(2-chlorophenyl)acetamide] | 200 to 5000 nM | –
23 | NS(=O)(=O)c1cc(NC(=O)Cc2ccccc2Cl)cc2cnc(-n3ccnc3)cc12 [Compound 22, N-(3-(1H-imidazol-1-yl)-5-sulfamoylisoquinolin-7-yl)-2-(2-chlorophenyl)acetamide] | 10 to 50 nM | –
24 | CC(C)Nc1ccc2c(S(N)(=O)=O)cc(NC(=O)Cc3ccccc3Cl)cc2n1 [Compound 73, 2-(2-chlorophenyl)-N-(2-(isopropylamino)-5-sulfamoylquinolin-7-yl)acetamide] | 200 to 5000 nM | –
